Test results from US20110262895A1, “METHODS FOR THE DIAGNOSIS OF VARICELLA ZOSTER VIRUS INFECTION” (priority 2008, published 2011).

What was measured:
VZV = conditions: requires VZV thymidine kinase for phosphorylation; cited from earlier work
CMV = conditions: cited from earlier work
HSV = conditions: cited from earlier work
[1] = Pain score (0-10) in herpes zoster patients treated with valacyclovir; type: in vivo, human; conditions: oral valacyclovir 1 g 3 times daily for 7 days, 50 patients with follow-up
Procedure: Methods. All human-study protocols were approved by the Committee for the Protection of Human Subjects of the Lyndon B. Johnson Space Center (control subjects) and by the Institutional Review Board of the University of Texas Health Sciences Center (patients with herpes zoster). Informed consent was obtained from all subjects. The 54 patients with herpes zoster consisted of 29 women (21-82 years old) and 25 men (35-79 years old) (Table 2). All patients with herpes zoster were treated with oral valacyclovir (1 g 3 times daily) for 7 consecutive days. Pain was described by all patients on a scale of 0 (no pain) to 10 (worst pain) (Jacox et al., 1994). Six control subjects consisted of 5 women (24-64 years old) and 1 person with chronic pain due to malignancy or non-VZV inflammatory disease. Fourteen additional healthy control subjects consisted of 9 men and 5 women (34-70 years old). Three saliva samples were collected at weekly intervals from all 6 control subjects with chronic pain and from the 14 healthy control subjects.

[2] = test system: varicella-zoster virus (VZV) DNA in saliva; test: Salivary VZV DNA by real-time PCR in herpes zoster patients treated with valacyclovir; type: in vivo, human; conditions: oral valacyclovir 1 g 3 times daily for 7 days, 50 patients with follow-up
Procedure: Methods. All human-study protocols were approved by the Committee for the Protection of Human Subjects of the Lyndon B. Johnson Space Center (control subjects) and by the Institutional Review Board of the University of Texas Health Sciences Center (patients with herpes zoster). Informed consent was obtained from all subjects. The 54 patients with herpes zoster consisted of 29 women (21-82 years old) and 25 men (35-79 years old) (Table 2). All patients with herpes zoster were treated with oral valacyclovir (1 g 3 times daily) for 7 consecutive days. Pain was described by all patients on a scale of 0 (no pain) to 10 (worst pain) (Jacox et al., 1994). […]
Saliva samples from all subjects were obtained by having subjects suck on a cotton plug for 1-2 min, after which the saturated cotton was placed in a salivette tube (Sarstedt). […] Quantitative real-time polymerase chain reaction (PCR) was performed in a TaqMan 7700 sequence detector (Applied Biosystems) using fluorescence-based simultaneous amplification and product detection.
Primers and probes specific for VZV, herpes simplex virus (HSV)-1 and GAPDH DNA sequences have been described elsewhere (Mehta et al., 2004; Cohrs et al., 2000). […] At the height of CPE, cells were analyzed by PCR with HSV-1-specific and VZV-specific primers (Mehta et al., 2004; Cohrs et al., 2000) and by immunohistochemistry for viral antigens.

SMILES	activity against VZV (VZV)	activity against CMV (CMV)	activity against HSV (HSV)	patients in whom pain decreased ([1]; 14-day study period)	patients in whom pain disappeared ([1]; end of 2-week study period)	patients in whom VZV DNA disappeared from saliva ([2]; 2-week study period)	patients in whom virus DNA copy numbers decreased in saliva ([2]; 14-day study period)
CC#Cc1cn([C@@H]2O[C@H](CO)[C@@H](O)[C@@H]2O)c(=O)[nH]c1=O [882C]	specific activity against VZV	without any significant activity	without any significant activity				
CC(C)[C@H](N)C(=O)OCCOCn1cnc2c(=O)[nH]c(N)nc21 [valacyclovir]				86%	74%	82%	94%
